Columns and labels:
Assay type in all cases: in vivo
[1] = tested on: Japanese bulrush (Scirpus juncoides Roxb.); test: Test Example 1: herbicidal effect by soil application to paddy field; details: paddy field soil application; active ingredient 1,000 g per 1 hectare; wettable powder added dropwise to water surface the day after sowing; examined on the 21st day after application
In short: (§1)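 Under greenhouse conditions, seeds sown on puddled paddy soil in 100 cm2 pots under 3 cm of standing water received the test compound; injury was assessed with a standard scoring scheme three weeks (day 21) after treatment.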

[2] = tested on: early watergrass (Echinochloa oryzicola Vasing); test: as above; details: paddy field soil application; active ingredient 1,000 g per 1 hectare; wettable powder added dropwise to water surface the day after sowing; examined on the 21st day after application
In short: as §1

[3] = tested on: heartshape false pickerelweed (Monochoria vaginalis (Burm.f.) C.Presl); test: as above; details: paddy field soil application; active ingredient 1,000 g per 1 hectare; wettable powder added dropwise to water surface the day after sowing; examined on the 21st day after application
In short: as §1

[4] = tested on: barnyardgrass (Echinochloa crus-galli (L.) P. Beauv. var. crus-galli); test: Test Example 2: herbicidal effect by soil application to upland field; details: soil surface spray, upland field soil, 1,000 g active ingredient per hectare, 21st day after application
In short: (§2)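 Soil-applied wettable powder, 1,000 g a.i./ha, sprayed after sowing onto covered field soil. Effect rated on a standard scale 21 days later in a greenhouse.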

[5] = tested on: green foxtail (Setaria viridis (L.) P. Beauv.); test: as above; details: soil surface spray, upland field soil, 1,000 g active ingredient per hectare, 21st day after application
In short: as §2

[6] = tested on: slender amaranth (Amaranthus viridis L.); test: as above; details: soil surface spray, upland field soil, 1,000 g active ingredient per hectare, 21st day after application
In short: as §2

[7] = tested on: velvetleaf (Abutilon theophrasti medicus); test: as above; details: soil surface spray, upland field soil, 1,000 g active ingredient per hectare, 21st day after application
In short: as §2

[8] = tested on: barnyardgrass (Echinochloa crus-galli (L.) P. Beauv. var. crus-galli); test: Test Example 3: herbicidal effect by application to upland field (foliage treatment); details: 14th day after application; for herbicidal effect, Barnyardgrass: foliage treatment, 1,000 g active ingredient per 1 hectare, greenhouse
In short: (§3)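 Read-out is a visual herbicidal-effect grade on a standard scale, taken on the 14th day after a single foliar spray. The spray was wettable powder diluted in water, 1,000 g active ingredient/ha at 1,000 L/ha, applied to greenhouse plants two weeks after sowing.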

[9] = tested on: green foxtail (Setaria viridis (L.) P. Beauv.); test: as above; details: 14th day after application; for herbicidal effect, Green Foxtail: foliage treatment, 1,000 g active ingredient per 1 hectare, greenhouse
In short: as §3

[10] = tested on: slender amaranth (Amaranthus viridis L.); test: as above; details: 14th day after application; for herbicidal effect, Slender Amaranth: foliage treatment, 1,000 g active ingredient per 1 hectare, greenhouse
In short: as §3

[11] = tested on: velvetleaf (Abutilon theophrasti medicus); test: as above; details: 14th day after application; for herbicidal effect, Velvetleaf: foliage treatment, 1,000 g active ingredient per 1 hectare, greenhouse
In short: as §3

[12] = foliage treatment, plants grown two weeks, 1,000 g active ingredient per hectare

Row | SMILES | herbicidal effect, Scirpus juncoides Roxb. [1] | herbicidal effect, Echinochloa oryzicola Vasing [2] | herbicidal effect, Monochoria vaginalis (Burm. f.) C. Presl [3] | herbicidal effect (index), Barnyardgrass [4] | herbicidal effect (index), Green Foxtail [5] | herbicidal effect (index), Slender Amaranth [6] | herbicidal effect (index), Velvetleaf [7] | herbicidal effect, Barnyardgrass [8] | herbicidal effect, Green Foxtail [9] | herbicidal effect, Slender Amaranth [10] | herbicidal effect, Velvetleaf [11] | herbicidal effect (index), Barnyardgrass [8, 12] | herbicidal effect (index), Green Foxtail [9, 12] | herbicidal effect (index), Slender Amaranth [10, 12] | herbicidal effect (index), Velvetleaf [11, 12]
1 | CCCS(=O)(=O)Oc1c(C(=O)c2ccc(C(F)(F)F)n(C(C)COC)c2=O)cnn1C (stereo not shown) [IV-37] | 5 (90% or more of herbicidal effect and crop phytotoxicity) | 5 (90% or more of herbicidal effect and crop phytotoxicity) | 5 (90% or more of herbicidal effect and crop phytotoxicity) | 5 (90% or more of herbicidal effect and crop phytotoxicity) | 5 (90% or more of herbicidal effect and crop phytotoxicity) | 5 (90% or more of herbicidal effect and crop phytotoxicity) | 5 (90% or more of herbicidal effect and crop phytotoxicity) | 5 (90% or more of herbicidal effect and crop phytotoxicity) | 3 (50 to less than 70% of herbicidal effect and crop phytotoxicity) | 5 (90% or more of herbicidal effect and crop phytotoxicity) | 5 (90% or more of herbicidal effect and crop phytotoxicity) | – | – | – | –
2 | CCS(=O)(=O)Cn1c(C(F)(F)F)ccc(C(=O)C2=C(O)CCCC2=O)c1=O [I-49] | 5 (90% or more of herbicidal effect and crop phytotoxicity) | 5 (90% or more of herbicidal effect and crop phytotoxicity) | 5 (90% or more of herbicidal effect and crop phytotoxicity) | 5 (90% or more of herbicidal effect and crop phytotoxicity) | 4 (70 to less than 90% of herbicidal effect and crop phytotoxicity) | 5 (90% or more of herbicidal effect and crop phytotoxicity) | 5 (90% or more of herbicidal effect and crop phytotoxicity) | – | – | – | – | 5 (90% or more of herbicidal effect and crop phytotoxicity) | 5 (90% or more of herbicidal effect and crop phytotoxicity) | 5 (90% or more of herbicidal effect and crop phytotoxicity) | 5 (90% or more of herbicidal effect and crop phytotoxicity)
3 | Cc1cc(Cn2c(C(F)(F)F)ccc(C(=O)C3=C(O)CCCC3=O)c2=O)on1 [I-128] | 5 (90% or more of herbicidal effect and crop phytotoxicity) | 5 (90% or more of herbicidal effect and crop phytotoxicity) | 5 (90% or more of herbicidal effect and crop phytotoxicity) | 5 (90% or more of herbicidal effect and crop phytotoxicity) | 4 (70 to less than 90% of herbicidal effect and crop phytotoxicity) | 5 (90% or more of herbicidal effect and crop phytotoxicity) | 5 (90% or more of herbicidal effect and crop phytotoxicity) | 5 (90% or more of herbicidal effect and crop phytotoxicity) | 4 (70 to less than 90% of herbicidal effect and crop phytotoxicity) | 5 (90% or more of herbicidal effect and crop phytotoxicity) | 5 (90% or more of herbicidal effect and crop phytotoxicity) | – | – | – | –
4 | CN(C)n1c(C(F)(F)F)ccc(C(=O)C2=C(O)CCCC2=O)c1=O [I-171] | 5 (90% or more of herbicidal effect and crop phytotoxicity) | 5 (90% or more of herbicidal effect and crop phytotoxicity) | 5 (90% or more of herbicidal effect and crop phytotoxicity) | 5 (90% or more of herbicidal effect and crop phytotoxicity) | 4 (70 to less than 90% of herbicidal effect and crop phytotoxicity) | 5 (90% or more of herbicidal effect and crop phytotoxicity) | 5 (90% or more of herbicidal effect and crop phytotoxicity) | 5 (90% or more of herbicidal effect and crop phytotoxicity) | 4 (70 to less than 90% of herbicidal effect and crop phytotoxicity) | 5 (90% or more of herbicidal effect and crop phytotoxicity) | 5 (90% or more of herbicidal effect and crop phytotoxicity) | – | – | – | –
5 | COCc1cc(-n2c(C(F)(F)F)ccc(C(=O)c3cnn(C)c3O)c2=O)ccc1F [IV-95] | 5 (90% or more of herbicidal effect and crop phytotoxicity) | 5 (90% or more of herbicidal effect and crop phytotoxicity) | 5 (90% or more of herbicidal effect and crop phytotoxicity) | 5 (90% or more of herbicidal effect and crop phytotoxicity) | 5 (90% or more of herbicidal effect and crop phytotoxicity) | 5 (90% or more of herbicidal effect and crop phytotoxicity) | 5 (90% or more of herbicidal effect and crop phytotoxicity) | 5 (90% or more of herbicidal effect and crop phytotoxicity) | 5 (90% or more of herbicidal effect and crop phytotoxicity) | 5 (90% or more of herbicidal effect and crop phytotoxicity) | 5 (90% or more of herbicidal effect and crop phytotoxicity) | – | – | – | –
6 | CCCS(=O)(=O)Oc1c(C(=O)c2ccc(C(F)(F)F)n(-c3ccc4c(c3)OCO4)c2=O)cnn1CC [IV-99] | 5 (90% or more of herbicidal effect and crop phytotoxicity) | 5 (90% or more of herbicidal effect and crop phytotoxicity) | 5 (90% or more of herbicidal effect and crop phytotoxicity) | 5 (90% or more of herbicidal effect and crop phytotoxicity) | 3 (50 to less than 70% of herbicidal effect and crop phytotoxicity) | 4 (70 to less than 90% of herbicidal effect and crop phytotoxicity) | 4 (70 to less than 90% of herbicidal effect and crop phytotoxicity) | 5 (90% or more of herbicidal effect and crop phytotoxicity) | 5 (90% or more of herbicidal effect and crop phytotoxicity) | 5 (90% or more of herbicidal effect and crop phytotoxicity) | 5 (90% or more of herbicidal effect and crop phytotoxicity) | – | – | – | –
7 | Cc1ccc(-n2c(C(F)(F)F)ccc(C(=O)C3=C(O)C4CCC(C4)C3=O)c2=O)cc1 (stereo not shown) [III-35] | 5 (90% or more of herbicidal effect and crop phytotoxicity) | 5 (90% or more of herbicidal effect and crop phytotoxicity) | 5 (90% or more of herbicidal effect and crop phytotoxicity) | 5 (90% or more of herbicidal effect and crop phytotoxicity) | 5 (90% or more of herbicidal effect and crop phytotoxicity) | 5 (90% or more of herbicidal effect and crop phytotoxicity) | 5 (90% or more of herbicidal effect and crop phytotoxicity) | 5 (90% or more of herbicidal effect and crop phytotoxicity) | 5 (90% or more of herbicidal effect and crop phytotoxicity) | 5 (90% or more of herbicidal effect and crop phytotoxicity) | 5 (90% or more of herbicidal effect and crop phytotoxicity) | – | – | – | –
8 | COCCCn1c(C(F)(F)F)ccc(C(=O)c2cnn(C)c2O)c1=O [IV-47] | 5 (90% or more of herbicidal effect and crop phytotoxicity) | 5 (90% or more of herbicidal effect and crop phytotoxicity) | 5 (90% or more of herbicidal effect and crop phytotoxicity) | 4 (70 to less than 90% of herbicidal effect and crop phytotoxicity) | 5 (90% or more of herbicidal effect and crop phytotoxicity) | 5 (90% or more of herbicidal effect and crop phytotoxicity) | 5 (90% or more of herbicidal effect and crop phytotoxicity) | 4 (70 to less than 90% of herbicidal effect and crop phytotoxicity) | 5 (90% or more of herbicidal effect and crop phytotoxicity) | 5 (90% or more of herbicidal effect and crop phytotoxicity) | 5 (90% or more of herbicidal effect and crop phytotoxicity) | – | – | – | –

Source: patent US8076487B2, “Pyridone derivative and herbicide” (Kumiai Chemical Industry Co., Ltd., priority 2006, dated 2011)
